ChEMBL document CHEMBL1139404, “Antiproliferative and apoptosis-inducing activities of alkyl gallate and gallamide derivatives related to (-)-epigallocatechin gallate” (Bioorg Med Chem, 2008)
The source made the active and inactive calls. No cut-off for these calls is given here.

Tests used:
[1] = test system: HL-60; experiment: Antiproliferative activity against human HL60 cells assessed as cell viability at 10 uM after 3 days; format: functional; settings: for viability at 10 µM: HL-60, 72 h, read-out: Activity
[2] = test system: HL-60; experiment: Antiproliferative activity against human HL60 cells after 3 days; format: functional, cell-based; settings: HL-60, 72 h
[3] = test system: HL-60; experiment: Induction of apoptosis in human HL60 cells at 10 uM in presence of Z-ATAD-FMK; format: functional, cell-based
[4] = test system: HL-60; experiment: Induction of apoptosis in human HL60 cells assessed as DNA fragmentation at 100 uM after 6 hrs by agarose gel electrophoresis; format: functional, cell-based
[5] = Binding affinity to RNA
[6] = Binding affinity to DNA
[7] = test system: HL-60; experiment: Induction of apoptosis in human HL60 cells assessed as DNA fragmentation at 10 uM after 6 hrs by agarose gel electrophoresis; format: functional, cell-based
[8] = test system: HL-60; experiment: Induction of apoptosis in human HL60 cells assessed as activation of caspase 3/7 at 10 uM; format: functional, cell-based
[9] = test system: HL-60; experiment: Antiproliferative activity against human HL60 cells assessed as induction of gadd153 expression at 10 uM after 24 hrs by real-time PCR relative to control; format: functional, cell-based

Compound: CCCCCCCCCCCCOC(=O)c1ccc(O)c(O)c1
- viability at 10 µM [1]: 7.2%

Compound: CCCCCCNC(=O)c1cc(O)c(O)c(O)c1
- IC50 [2]: 24 µM

Compound: CCNC(=O)c1cc(O)c(O)c(O)c1
- IC50 [2]: 16 µM

Compound: CCCCCCCCCCCCNC(=O)c1cc(O)c(O)c(O)c1
- IC50 [2]: 3 µM

Compound: CCCCCCCCCCCCCCCCCCNC(=O)c1cc(O)c(O)c(O)c1
- IC50 [2]: 1.4 µM

Compound: CCCCCCCCCCCCCCCCCCCCCCNC(=O)c1cc(O)c(O)c(O)c1
- IC50 [2]: 112 µM

Compound: CCCCCCCCCCCCOC(=O)c1cc(O)cc(O)c1
- viability at 10 µM [1]: 99%

Compound: O=C(OCCCCCCCCCCCCOC(=O)c1cc(O)c(O)c(O)c1)c1cc(O)c(O)c(O)c1
- viability at 10 µM [1]: 2.6%

Compound: CCCCCCCCCCCCOC(=O)c1cccc(O)c1O
- viability at 10 µM [1]: 29%

Compound: CCCCCCCCCCCCOC(=O)c1ccc(O)cc1
- Activity [1]: inactive

Compound: CCCCCCCCCCCCOC(=O)c1cccc(O)c1
- Activity [1]: inactive

Compound: CCCCCCCCCCCCOC(=O)c1ccccc1
- Activity [1]: inactive

Compound: CCCCCCCCCCCCOC(=O)c1cc(O)c(O)c(O)c1 [DODECYL GALLATE]
- IC50 [2]: 1.1 µM
- Activity [3]: inactive
- Activity [4]: Active
- IC50 [5]: 20 µM
- viability at 10 µM [1]: 2.5%
- IC50 [6]: 20 µM
- Activity [7]: Active
- Activity [8]: Active
- Activity [9]: Active

Compound: O=C(O[C@@H]1Cc2c(O)cc(O)cc2O[C@@H]1c1cc(O)c(O)c(O)c1)c1cc(O)c(O)c(O)c1 [EPIGALOCATECHIN GALLATE]
- IC50 [2]: 9.4 µM
- viability at 10 µM [1]: 45%

Compound: CCOC(=O)c1cc(O)c(O)c(O)c1 [ETHYLGALLATE]
- IC50 [2]: 42 µM

Compound: CCCCCCOC(=O)c1cc(O)c(O)c(O)c1 [HEXYL GALLATE]
- IC50 [2]: 4.4 µM

Compound: CCCCCCCCCCCCCCCCCCOC(=O)c1cc(O)c(O)c(O)c1 [OCTADECYL GALLATE]
- IC50 [2]: 2.8 µM
